# Assay results published in patent publication US20110172296A1, “MODULATION OF TRANSFORMING GROWTH FACTOR-BETA 1 EXPRESSION” (priority 2010, published 2011).
# Where “and” joins values, the source holds several entries; their conditions need not be identical. Identical values can stand only once. Entries after “also recorded” stand apart in the source; their conditions may differ. In the oligonucleotide strings, read from the 5' end, every base follows the letter of its sugar. An asterisk marks phosphorothioate; unmarked linkages are phosphodiester. Other units and linkages are bracketed, terminal groups are in braces. A string of capitals states the bases alone. e = 2'-O-(2-methoxyethyl) (MOE); [5mC] = 5-methylcytosine; d = 2'-deoxy (DNA)
# Columns and labels:
# human TGF-beta1 mRNA [1] = test: Antisense inhibition of human TGF-beta1 mRNA in HuVEC cells, single 10 nM dose, Lipofectamine 2000 (Example 2); type: cell-based
# Summary of the method: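 HuVEC cells (5,000/well) transfected with 10 nM 2-13-5 MOE gapmer (phosphorothioate, 5-methylcytosine) via Lipofectamine 2000 for 4 h, then recovered ~24 h. mRNA measured by qRT-PCR, normalized to RIBOGREEN total RNA; percent inhibition versus untreated cells.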
# human TGF-beta1 mRNA [2] = test: Dose-dependent antisense inhibition of human TGF-beta1 in HuVEC cells, Lipofectamine 2000, 0.9375-30 nM (Example 3); type: cell-based; settings: Lipofectamine 2000
# Method: Cells were plated at a density of 5,000 cells per well and transfected using Lipofectamine™ 2000 reagent with 0.9375 nM, 1.875 nM, 3.75 nM, 7.5 nM, 15 nM, and 30 nM concentrations of antisense oligonucleotide for 4 hours, as specified in Table 3. After a recovery period of approximately 16 hours, RNA was isolated from the cells and TGF-beta1 mRNA levels were measured by quantitative real-time PCR. Human TGF-beta1 primer probe set RTS 2980 (forward sequence CTCTCCGACCTGCCACAGA, SEQ ID NO: 160; reverse sequence […], SEQ ID NO: 53; probe sequence CCCTATTCAAGACCACCCACCTTCTGGTX, SEQ ID NO: 161) was used to measure mRNA levels. TGF-beta1 mRNA levels were adjusted according to total RNA content, as measured by RIBOGREEN®. Results are presented as percent inhibition of TGF-beta1, relative to untreated control cells.
# human TGF-beta1 mRNA [3] = test: Dose-dependent antisense inhibition of human TGF-beta1 in HuVEC cells, Lipofectamine 2000, 0.3292-80 nM, comparison with oligos of U.S. Pat. No. 6,436,909 (Example 4); type: cell-based
# Method: The dose-dependent antisense inhibition potential of these gapmers was compared with that of Oligo IDs 104992 and 1138498 from U.S. Pat. No. 6,436,909. Cells were plated at a density of 5,000 cells per well and transfected using Lipofectamine™ 2000 reagent with 0.3292 nM, 0.9877 nM, 2.963 nM, 8.8889 nM, 26.6667 nM, and 80 nM concentrations of antisense oligonucleotide for 4 hours, as specified in Table 4. After a recovery period of approximately 16 hours, RNA was isolated from the cells and TGF-beta1 mRNA levels were measured by quantitative real-time PCR. Human TGF-beta1 primer probe set RTS 2980 was used to measure mRNA levels. TGF-beta1 mRNA levels were adjusted according to total RNA content, as measured by RIBOGREEN®. Results are presented as percent inhibition of TGF-beta1, relative to untreated control cells. […] All the antisense oligonucleotides in Table 4 target human TGF-beta1 mRNA (SEQ ID NO: 1).
# human TGF-beta1 mRNA [4] = test: Dose-dependent confirmation of antisense inhibition of human TGF-beta1 in HuVEC cells after large-scale synthesis, Lipofectamine 2000, 0.007-15 nM (Example 5); type: cell-based; settings: for percent inhibition of TGF-beta1: Lipofectamine 2000
# Method: Cells were plated at a density of 5,000 cells per well and transfected using Lipofectamine™ 2000 reagent with 0.007 nM, 0.021 nM, 0.062 nM, 0.185 nM, 0.556 nM, 1.667 nM, 5 nM, and 15 nM concentrations of antisense oligonucleotide for 4 hours, as specified in Table 5. After a recovery period of approximately 16 hours, RNA was isolated from the cells and TGF-beta1 mRNA levels were measured by quantitative real-time PCR. Human TGF-beta1 primer probe set RTS 2980 was used to measure mRNA levels. TGF-beta1 mRNA levels were adjusted according to total RNA content, as measured by RIBOGREEN®. Results are presented as percent inhibition of TGF-beta1, relative to untreated control cells.
# human TGF-beta1 mRNA [5] = test: Dose-dependent confirmation of antisense inhibition of human TGF-beta1 in HuVEC cells, electroporation (Example 6); type: cell-based
# Method: The gapmers from Example 5 (see Table 5) were also tested at various doses in HuVEC cells using electroporation as the transfection reagent. Cells were plated at a density of 20,000 cells per well and transfected using electroporation with 0.15625 nM, 0.3125 nM, 0.625 nM, 1.25 nM, 2.5 nM, 5 nM, 10 nM, and 20 nM concentrations of antisense oligonucleotide for 4 hours, as specified in Table 6. After a recovery period of approximately 16 hours, RNA was isolated from the cells and TGF-beta1 mRNA levels were measured by quantitative real-time PCR. TGF-beta1 mRNA levels were adjusted according to total RNA content, as measured by RIBOGREEN®. Results are presented as percent inhibition of TGF-beta1, relative to untreated control cells.
# BALB/c mice = test: Tolerability in BALB/c mice: plasma transaminases ALT and AST (Example 7); settings: for aspartate transaminase levels: plasma
# [6] = test system: bleomycin-induced skin fibrosis in C57BL/6 mice; test: Bleomycin-induced murine model of skin fibrosis: skin thickness and breaking strength (Example 10); type: in vivo, mouse; settings: for bleomycin-induced skin fibrosis and thickening: C57BL/6 mice, 5 mg intradermally twice a week, Day 18
# Method: The ability of a TGF-beta1 ASO to reduce the induction of skin fibrosis in a bleomycin-induced model of dermal fibrosis was evaluated.
# Two groups of 8 C57BL/6 mice each were treated with bleomycin every other day for 19 days. Bleomycin, at a concentration of 10 mg/mL in PBS and at a volume of 0.1 mL, was injected subcutaneously into the shaved backs of the mice. The injection site was divided into 4 quadrants. The 100 μL volume of bleomycin was divided into four 25 μL aliquots injected at 90 degree intervals, to the upper left, upper right, lower left, and lower right “quadrants”.
# Each of the two groups was treated intradermally with PBS (vehicle) or a 5 mg dose of a TGF-beta1 antisense oligonucleotide (Oligo ID 433849) twice a week, starting from day 1 of bleomycin administration. Animals were sacrificed on Day 18 of the study. Skin thickness was measured by skin calipers on 6-mm punch biopsy specimens obtained from the upper back of the mice. Breaking strength of the skin was measured on the 6-mm punch biopsy specimens using a tensiometer (Series EG2 digital force gauge; Mark-10, Copiague, N.Y.), and the point of maximal stress before tearing of the biopsy specimen was recorded. All measurements were undertaken in a blinded manner.
substance,measurement,setting,value
414040 (antisense e[5mC]*eT*d[5mC]*dT*d[5mC]*dT*d[5mC]*d[5mC]*dA*dT*d[5mC]*dT*dT*dT*dA*eA*eT*eG*eG*eG) [compound 414040],% inhibition,"human TGF-beta1 mRNA [1]; 10 nM oligonucleotide, HuVEC, relative to untreated control cells, gapmers targeted to SEQ ID NO: 1",90%
same,inhibition of a TGF-beta1 mRNA,"human TGF-beta1 mRNA [1]; threshold lists of Oligo IDs, 10 nM",60% and 65% and 70% and 75% and 80% and 85% and 90%
same,percent inhibition of TGF-beta1,human TGF-beta1 mRNA [2]; 0.9375 nM,72%
same,percent inhibition of TGF-beta1,human TGF-beta1 mRNA [2]; 1.875 nM,83%
same,percent inhibition of TGF-beta1,human TGF-beta1 mRNA [2]; 3.75 nM,90%
same,percent inhibition of TGF-beta1,human TGF-beta1 mRNA [2]; 7.5 nM,94%
same,percent inhibition of TGF-beta1,human TGF-beta1 mRNA [2]; 15 nM,95%
same,percent inhibition of TGF-beta1,human TGF-beta1 mRNA [2]; 30 nM,95%
same,percent inhibition of TGF-beta1,human TGF-beta1 mRNA [3]; 0.3292 nM,85%
same,percent inhibition of TGF-beta1,human TGF-beta1 mRNA [3]; 0.9877 nM,90%
same,percent inhibition of TGF-beta1,human TGF-beta1 mRNA [3]; 2.963 nM,94%
same,percent inhibition of TGF-beta1,human TGF-beta1 mRNA [3]; 8.8889 nM,94%
same,percent inhibition of TGF-beta1,human TGF-beta1 mRNA [3]; 26.6667 nM,94%
same,percent inhibition of TGF-beta1,human TGF-beta1 mRNA [3]; 80.0 nM,93%
same,percent inhibition of TGF-beta1,human TGF-beta1 mRNA [4]; 0.007 nM,19%
same,percent inhibition of TGF-beta1,human TGF-beta1 mRNA [4]; 0.021 nM,45%
same,percent inhibition of TGF-beta1,human TGF-beta1 mRNA [4]; 0.062 nM,58%
same,percent inhibition of TGF-beta1,human TGF-beta1 mRNA [4]; 0.185 nM,76%
same,percent inhibition of TGF-beta1,human TGF-beta1 mRNA [4]; 0.556 nM,83%
same,percent inhibition of TGF-beta1,human TGF-beta1 mRNA [4]; 1.667 nM,89%
same,percent inhibition of TGF-beta1,human TGF-beta1 mRNA [4]; 5 nM,92%
same,percent inhibition of TGF-beta1,human TGF-beta1 mRNA [4]; 15 nM,93%
same,IC50,"human TGF-beta1 mRNA [4]; Lipofectamine 2000, Example 5",40 pM
same,percent inhibition of TGF-beta1 mRNA relative to untreated control cells,human TGF-beta1 mRNA [5]; 0.15625 nM oligonucleotide,57%
same,percent inhibition of TGF-beta1 mRNA relative to untreated control cells,human TGF-beta1 mRNA [5]; 0.3125 nM oligonucleotide,68%
same,percent inhibition of TGF-beta1 mRNA relative to untreated control cells,human TGF-beta1 mRNA [5]; 0.625 nM oligonucleotide,81%
same,percent inhibition of TGF-beta1 mRNA relative to untreated control cells,human TGF-beta1 mRNA [5]; 1.25 nM oligonucleotide,91%
same,percent inhibition of TGF-beta1 mRNA relative to untreated control cells,human TGF-beta1 mRNA [5]; 2.5 nM oligonucleotide,93%
same,percent inhibition of TGF-beta1 mRNA relative to untreated control cells,human TGF-beta1 mRNA [5]; 5.00 nM oligonucleotide,95%
same,percent inhibition of TGF-beta1 mRNA relative to untreated control cells,human TGF-beta1 mRNA [5]; 10.00 nM oligonucleotide,94%
same,percent inhibition of TGF-beta1 mRNA relative to untreated control cells,human TGF-beta1 mRNA [5]; 20 nM oligonucleotide,94%
same,alanine transaminase levels,"BALB/c mice; 25 mg/kg twice a week, Week 2",178 IU/L
same,alanine transaminase levels,"BALB/c mice; 25 mg/kg twice a week, Week 4",2248 IU/L
same,aspartate transaminase levels,"BALB/c mice; 25 mg/kg twice a week, Week 2",128 IU/L
same,aspartate transaminase levels,"BALB/c mice; 25 mg/kg twice a week, Week 4",1405 IU/L
same,alanine transaminase levels,"BALB/c mice; 50 mg/kg twice a week, Week 2",837 IU/L
same,alanine transaminase levels,"BALB/c mice; 50 mg/kg twice a week, Week 4",4997 IU/L
same,aspartate transaminase levels,"BALB/c mice; 50 mg/kg twice a week, Week 2",529 IU/L
same,aspartate transaminase levels,"BALB/c mice; 50 mg/kg twice a week, Week 4",2237 IU/L
same,increase in ALT levels,BALB/c mice; compared to placebo (PBS) controls,> 160 fold and 166 fold
"Oligo ID 433849: rat specific TGF-beta1 antisense oligonucleotide; SEQ ID NO. 166 (antisense GTCCTTAAATACAGCCCCGG; listed as DNA, chemistry not given here) [rat specific TGF-beta1 antisense oligonucleotide; 166]",bleomycin-induced skin fibrosis and thickening,[6],significantly reduced
same,bleomycin-induced skin fibrosis and thickening,[6]; listed as TGF-beta1 ASO,significantly reduced; also recorded: reduced the severity
bleomycin [reference compound],skin thickness,"[6]; bleomycin-treated mice, from 30 mm",40-45 mm
same,breaking strength of skin,"[6]; bleomycin-treated mice, untreated skin typically 0.2 kg tension",approximately 0.47 kg
